Reference: patent publication US5817670A, “Naphthyridine derivatives and pharmaceutical compositions thereof” (Yamanouchi Pharmaceutical Co., Ltd., priority 1994, dated 1998)

How the values were obtained:
type V phosphodiesterase = biological target: T1, type V phosphodiesterase (Homo sapiens, UniProt O76074); test: Phosphodiesterase inhibition activity (in vitro), Type V; format: biochemical, human (peripheral blood of a healthy person); details: 1 μM cGMP
T1 construct: from tissue; host or cells: human peripheral blood granulocyte fraction, soluble, Q Sepharose
Text: (§1) (A) In order to evaluate selectivity of the compounds of the present invention for type IV phosphodiesterase, types I, II, III and V phosphodiesterase isozymes were purified in the following manner.
(§2) 2) Solutions containing various phosphodiesterase isozymes were obtained from the thus obtained soluble fraction in the following manner. The thus, obtained soluble fraction was applied to a column of 1.6×10.0 cm packed with Q Sepharose which had been equilibrated with buffer A. Next, said column was washed with 300 ml of buffer A to remove non-absorbed protein. Phosphodiesterase was eluted with 200 ml of buffer A having 0.05 to 1.25M linear gradient of sodium acetate to collect about 40 fractions each containing 5.0 ml eluate. Each fraction was checked for cAMP- and cGMP-metabolizing phosphodiesterase activities. Of these fractions, a fraction having only cAMP-metabolizing activity and showing disappearance of the metabolizing activity by 0.1 μM cilostamide (a type III phosphodiesterase selective inhibitor) was used as the type III phosphodiesterase. […] These fractions were separately collected to be used as phosphodiesterase (types I, II and III) stock solutions for the examination of selectivity. p1 3) A solution containing type V phosphodiesterase was prepared from peripheral blood of a healthy person in the following manner. A 200 ml portion of physiological saline supplemented with dextran (3%) was added to 500 ml of heparinized peripheral blood and incubated at 37° C. for 40 minutes to effect precipitation of erythrocytes. The supernatant fluid after precipitation of erythrocytes was recovered and centrifuged once, and the resulting precipitate was suspended in buffer B (140 mM NaCl, 5 mM KCl, 5 mm glucose and 10 mM HEPES, pH 7.4), overlaid on a solution for density gradient centrifugation use (Ficoll solution) and then centrifuged at room temperature for 40 minutes at 450×g, thereby separating monocyte fraction and granulocyte fraction. The granulocyte fraction was washed once with buffer C (140 mM NaCl, 5 mM KCl, 1 mM CaCl2, 1 mM MgCl2, 5 mM glucose and 10 mM HEPES, pH 7.4) and suspended in buffer D (20 mM Bis-Tris, 5 mM dithioerythritol, 2 mM EGTA and 50 mM sodium acetate, pH 6.5) containing a protease inhibitor (40 μM leupeptin, 5 μM pepstatin A, 20 μM aprotinin, 50 μM phenyl-methyl-sulfonyl-fluoride or 2 mM benzamidine) and then the cells were disrupted using polytron and sonicator and subjected to ultracentrifugation (4° C., 100,000×g, 60 minutes) to give a soluble fraction.
4) The thus obtained soluble fraction was applied to a column of 1.6×10 cm packed with Q Sepharose which had been equilibrated with buffer D. Next, the column was washed with 120 ml of buffer D to remove non-absorbed protein. Phosphodiesterase was eluted with 300 ml of buffer D having 0.05 to 1.25M linear gradient of sodium acetate to collect fractions each containing 5.0 ml eluate. Each fraction was checked for cAMP- and cGMP-metabolizing phosphodiesterase activities. Fractions having only cGMP metabolizing activity were collected to be used as the type V phosphodiesterase stock solution.
(§3) (B) Inhibitory activities were measured using the thus obtained stock solutions of various phosphodiesterase isozymes.
1) A predetermined amount of each compound to be tested was subjected to 10 minutes of reaction at 30° C. in a reaction mixture containing 40 mM Tris-HCl (pH 8.0), 5 mM MgCl2, 4 mM 2-mercaptoethanol, 10 μM rolipram (a type IV phosphodiesterase selective inhibitor), 1 μM cAMP, 10 nM ^3 H-cAMP (in the case of type V phosphodiesterase, 1 μM cAMP and 10 nM ^3 H-cAMP are replaced by 1 μM cGMP and 100 nM ^3 H-cGMP) and each of the isozyme stock solutions. After completion of the reaction, the reaction mixture was boiled at 90° C. for 1 minute, ice-cooled, mixed with 1 unit of 5'-nucleotidase and then subjected to 10 minutes of reaction at 30° C., and the reaction was stopped by adding 1 ml of methanol. […]

[1] = biological target: T2, type II phosphodiesterase (Rattus norvegicus, UniProt Q01062); test: Phosphodiesterase inhibition activity (in vitro), Type II; format: biochemical; details: Type II phosphodiesterase column
T2 construct: purified from rat heart muscle cells; from tissue; host or cells: rat heart, soluble fraction, Q Sepharose
T2 sequence (Q01062 1-928): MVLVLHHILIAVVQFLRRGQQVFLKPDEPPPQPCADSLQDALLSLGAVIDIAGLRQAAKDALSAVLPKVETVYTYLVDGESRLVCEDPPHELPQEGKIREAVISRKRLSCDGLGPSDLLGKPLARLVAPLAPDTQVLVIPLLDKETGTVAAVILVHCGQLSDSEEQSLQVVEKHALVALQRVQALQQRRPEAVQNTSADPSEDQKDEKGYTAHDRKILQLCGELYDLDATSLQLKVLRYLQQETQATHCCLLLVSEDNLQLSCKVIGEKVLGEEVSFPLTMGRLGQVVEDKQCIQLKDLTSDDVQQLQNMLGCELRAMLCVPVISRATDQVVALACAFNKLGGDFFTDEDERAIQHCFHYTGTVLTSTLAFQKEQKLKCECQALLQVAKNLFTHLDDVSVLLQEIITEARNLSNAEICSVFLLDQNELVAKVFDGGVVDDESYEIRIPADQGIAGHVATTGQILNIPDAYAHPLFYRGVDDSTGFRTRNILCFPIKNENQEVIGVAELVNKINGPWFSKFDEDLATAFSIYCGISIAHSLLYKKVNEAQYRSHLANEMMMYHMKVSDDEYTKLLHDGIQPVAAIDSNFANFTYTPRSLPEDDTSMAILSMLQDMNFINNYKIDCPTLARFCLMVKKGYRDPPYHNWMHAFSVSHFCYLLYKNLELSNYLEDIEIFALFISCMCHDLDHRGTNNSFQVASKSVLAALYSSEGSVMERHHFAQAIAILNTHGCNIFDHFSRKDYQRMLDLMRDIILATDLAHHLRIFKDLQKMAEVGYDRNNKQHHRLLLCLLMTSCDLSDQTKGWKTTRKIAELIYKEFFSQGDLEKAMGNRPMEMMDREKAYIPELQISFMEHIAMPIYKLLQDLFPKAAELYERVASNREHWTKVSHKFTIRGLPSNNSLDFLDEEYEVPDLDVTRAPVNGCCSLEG
Text: as §1
1) Solutions containing various phosphodiesterase (types I, II and III) isozymes were purified from rat heart muscle cells in the following manner. Under ether anesthesia, Wistar rat was subjected to thoracotomy to excise the heart. After removing blood by perfusion with physiological saline supplemented with heparin (1 unit/ml), the heart was finely chopped with scissors. This was suspended in buffer A (20 mM Bis-Tris, 5 mM dithioerythritol, 2 mM EGTA and 50 mM sodium acetate, pH 6.5) containing a protease inhibitor (50 μM phenyl-methyl-sulfonyl-fluoride, 5 μM pepstatin A, 40 μM leupeptin, 20 μM aprotinin or 2 mM benzamidine) and then the cells were disrupted using polytron and sonicator and subjected to ultracentrifugation (4° C., 100,000×g, 60 minutes) to give a soluble fraction.
as §2, §3
1) A predetermined amount of each compound to be tested was subjected to 10 minutes of reaction at 30° C. in a reaction mixture containing 40 mM Tris-HCl (pH 8.0), 5 mM MgCl2, 4 mM 2-mercaptoethanol, 10 μM rolipram (a type IV phosphodiesterase selective inhibitor), 1 μM cAMP, 10 nM ^3 H-cAMP (in the case of type V phosphodiesterase, 1 μM cAMP and 10 nM ^3 H-cAMP are replaced by 1 μM cGMP and 100 nM ^3 H-cGMP) and each of the isozyme stock solutions. […]

## CCc1cc(C)c2c(-c3cccc(Cl)c3)cc(=O)n(CC)c2n1 [Example 39, 4-(3-Chlorophenyl)-1,7-diethyl-5-methyl-1,8-naphthyridin-2(1H)-one]
Type V phosphodiesterase
  IC50: 1050 nM
[1]
  IC50: > 3000 nM
